# Results as given in PMC5362899, “Structural insights into the nucleotide base specificity of P2X receptors” (Scientific Reports, 2017).
# Positions count from the first letter of the chain named.
# Columns and labels:
# Assay type in all cases: cell-based
# [1] = biological target: T1, rat P2X4 WT (rWT) (Rattus norvegicus, UniProt P51577); assay: Two-Electrode Voltage Clamp recording, rat P2X4 WT in Xenopus oocytes; settings: for nucleotide-evoked currents: GTP and UTP applied at 3 mM (Fig. S4); for EC50: oocytes held at −70 mV, n = 9, read-out: EC50 (evoked current, dose-response)
# T1 construct: rat P2X4 (NP_113782.1; WT and mutants) were transcribed from pGEMHE plasmids; expressed in transfected cells; host or cells: Xenopus laevis oocytes injected with cRNA from pGEMHE
# T1 sequence (P51577 1-388): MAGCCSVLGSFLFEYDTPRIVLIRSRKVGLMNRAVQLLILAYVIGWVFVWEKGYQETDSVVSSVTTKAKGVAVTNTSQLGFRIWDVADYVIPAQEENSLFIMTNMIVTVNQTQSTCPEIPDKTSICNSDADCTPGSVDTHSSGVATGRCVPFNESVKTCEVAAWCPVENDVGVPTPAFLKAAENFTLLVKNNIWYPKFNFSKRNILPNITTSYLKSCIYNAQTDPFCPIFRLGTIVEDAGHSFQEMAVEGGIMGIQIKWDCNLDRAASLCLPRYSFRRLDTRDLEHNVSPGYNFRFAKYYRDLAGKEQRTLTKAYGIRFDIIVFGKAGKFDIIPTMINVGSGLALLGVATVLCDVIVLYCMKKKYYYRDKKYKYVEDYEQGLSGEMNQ
# Excerpt: To further investigate the functional roles of the residues involved in the base recognition, T189 and R143, we performed an electrophysiological analysis with the rat P2X4, since its electrophysiological properties have been well established. We first assessed the functional role of T189 in zfP2X4 and introduced mutations at the equivalent residue of the rat P2X4 to create three mutants (^rT186A, ^rT186V and ^rT186S; the superscript “r” means rat P2X4). […] Therefore, we examined the ^rWT and the ^rT186S mutant.
# (§1) Figure 4 Current responses of ^rWT, ^rT186S, ^rH140A and ^rH140R evoked by ATP and CTP. (A,B) Representative currents of ^rWT evoked by ATP (1–300 μM) (A) and CTP (10–10,000 μM) (B). (C,D) Representative currents of the ^rT186S mutant evoked by ATP (1–300 μM) (C) and CTP (10–10,000 μM) (D). (E,F) Representative currents of the ^rH140A mutant evoked by ATP (1–300 μM) (E) and CTP (10–10,000 μM) (F). (G,H) Representative currents of the ^rH140R mutant evoked by ATP (1–300 μM) (G) and CTP (10–10,000 μM) (H). (I–K) Concentration-response curves evoked by ATP and CTP in the ^rWT and the ^rT186S mutant (I), in the ^rWT and the ^rH140A mutant (J) and in the ^rWT and the ^rH140R mutant (K). Symbols are defined in the figure, and bars depict means ± SEM (n = 7–9).
# (§2) The cRNAs encoding zebrafish P2X4 (NP_705939; WT) and rat P2X4 (NP_113782.1; WT and mutants) were transcribed from pGEMHE plasmids, using a mMessage mMachine® T7 ULTRA kit (Ambion, Huntingdon, Cambridgeshire, UK). Xenopus laevis oocytes were prepared, and RNA (100 ng for zebrafish P2X4, and 20 ng for rat P2X4) was injected into the oocytes. The oocytes were incubated at 18 °C in Barth’s solution, containing 88 mM NaCl, 1 mM KCl, 2.4 mM NaHCO3, 10 mM HEPES, 0.33 mM Ca(NO3)2, 0.41 mM CaCl2, and 0.82 mM MgSO4, pH 7.4, supplemented with 50 μg/ml gentamicin, and were used for recording after 2–3 days. Recording solutions contained 100 mM NaCl, 5 mM HEPES, 2 mM MgCl2, pH 7.3, and nucleoside triphosphates (ATP, CTP, GTP, and UTP), which were freshly prepared each day. Oocytes were held at −70 mV with a bath-clamp amplifier (OC-725C, Warner Co., USA), and macroscopic currents were recorded and analyzed using the pClamp 10 software (Molecular Devices, USA)[33][34]. We measured n = 4 for zebrafish P2X4 data and n = 7–9 for rat P2X4 data.
# [2] = biological target: T2, rat P2X4 rH140R mutant (Rattus norvegicus, UniProt P51577, H140R); assay: Two-Electrode Voltage Clamp recording, rat P2X4 H140R mutant in Xenopus oocytes; settings: for nucleotide-evoked currents / EC50: rH140R mutant; for nucleotide-evoked currents: 3 mM GTP, 3 mM UTP (Fig. S4); for fold reduced affinity as compared with rWT: rH140R mutant vs rWT, from EC50; for EC50: oocytes held at −70 mV, n = 9-10, read-out: EC50 (evoked current, dose-response)
# T2 construct: rat P2X4 (NP_113782.1; WT and mutants) were transcribed from pGEMHE plasmids; expressed in transfected cells; host or cells: Xenopus laevis oocytes injected with cRNA from pGEMHE
# T2 sequence (P51577 1-388 H140R): T1 sequence (P51577 1-388) with H140R
# Procedure: as §1
# (§3) Next we assessed the functional role of R143 in zfP2X4, as its side chain forms a hydrogen bond with the cytosine ring in the CTP-bound structure (Fig. 3A,B). This arginine residue is substituted with a similar basic residue, histidine (^rH140), in rat P2X4 (Fig. 3E).
# as §2
# [3] = biological target: T3, rat P2X4 rH140A mutant (Rattus norvegicus, UniProt P51577, H140A); assay: Two-Electrode Voltage Clamp recording, rat P2X4 H140A mutant in Xenopus oocytes; settings: for nucleotide-evoked currents / EC50: rH140A mutant; for nucleotide-evoked currents: 3 mM GTP, 3 mM UTP (Fig. S4); for fold reduced affinity as compared with rWT: rH140A mutant vs rWT, from EC50; for EC50: oocytes held at −70 mV, n = 7-8, read-out: EC50 (evoked current, dose-response)
# T3 construct: rat P2X4 (NP_113782.1; WT and mutants) were transcribed from pGEMHE plasmids; expressed in transfected cells; host or cells: Xenopus laevis oocytes injected with cRNA from pGEMHE
# T3 sequence (P51577 1-388 H140A): T1 sequence (P51577 1-388) with H140A
# Procedure: as §1, §3, §2
SMILES,nucleotide-evoked currents [1],nucleotide-evoked currents [2],nucleotide-evoked currents [3],EC50 [1] [µM],fold reduced affinity as compared with rWT [2],EC50 [2] [µM],fold reduced affinity as compared with rWT [3],EC50 [3] [µM]
Nc1nc2c(ncn2[C@@H]2O[C@H](COP(=O)(O)OP(=O)(O)OP(=O)(O)O)[C@@H](O)[C@H]2O)c(=O)[nH]1 [GTP],no GTP- and UTP-evoked currents were detected,no GTP- and UTP-evoked currents were detected,no GTP- and UTP-evoked currents were detected,,,,,
O=c1ccn([C@@H]2O[C@H](COP(=O)(O)OP(=O)(O)OP(=O)(O)O)[C@@H](O)[C@H]2O)c(=O)[nH]1 [UTP],no GTP- and UTP-evoked currents were detected,no GTP- and UTP-evoked currents were detected,no GTP- and UTP-evoked currents were detected,,,,,
"Nc1ncnc2c1ncn2[C@@H]1O[C@H](COP(=O)(O)OP(=O)(O)OP(=O)(O)O)[C@@H](O)[C@H]1O [ATP, Adenosine 5-triphosphate]",ATP- and CTP-evoked currents were detected,,,16.2 ± 5.4,about 2 fold,39.4 ± 5,about 2.5 fold,42.8 ± 6.3
Nc1ccn([C@@H]2O[C@H](COP(=O)(O)OP(=O)(O)OP(=O)(O)O)[C@@H](O)[C@H]2O)c(=O)n1 [CTP],ATP- and CTP-evoked currents were detected,,,564 ± 170,about 2 fold,1100 ± 140,~14 fold,7990
